From patent US9034921B2, “Diphenylmethane derivatives as SGLT2 inhibitors” (GREEN CROSS CORPORATION, priority 2011, dated 2015)

Biological target: human SGLT2 (Homo sapiens (Human), UniProt P31639)
Test: Inhibitory effects on human SGLT2 activities (14C-AMG uptake, sodium-dependent glucose transport assay)
Type: cell-based
Settings: CHO cells stably expressing hSGLT2, 37° C., 2 h, single determinations
How it was run: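 CHO cells stably expressing hSGLT2 were preincubated 10 min at 37 °C in choline (Na+-free) buffer, then exposed 2 h at 37 °C to compound in Na+ uptake buffer with 8 μM 14C-AMG and 1 mM unlabeled AMG. Radioactivity was scintillation counted; IC50 came from nonlinear regression.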

Chain of human SGLT2 (P31639 whole entry): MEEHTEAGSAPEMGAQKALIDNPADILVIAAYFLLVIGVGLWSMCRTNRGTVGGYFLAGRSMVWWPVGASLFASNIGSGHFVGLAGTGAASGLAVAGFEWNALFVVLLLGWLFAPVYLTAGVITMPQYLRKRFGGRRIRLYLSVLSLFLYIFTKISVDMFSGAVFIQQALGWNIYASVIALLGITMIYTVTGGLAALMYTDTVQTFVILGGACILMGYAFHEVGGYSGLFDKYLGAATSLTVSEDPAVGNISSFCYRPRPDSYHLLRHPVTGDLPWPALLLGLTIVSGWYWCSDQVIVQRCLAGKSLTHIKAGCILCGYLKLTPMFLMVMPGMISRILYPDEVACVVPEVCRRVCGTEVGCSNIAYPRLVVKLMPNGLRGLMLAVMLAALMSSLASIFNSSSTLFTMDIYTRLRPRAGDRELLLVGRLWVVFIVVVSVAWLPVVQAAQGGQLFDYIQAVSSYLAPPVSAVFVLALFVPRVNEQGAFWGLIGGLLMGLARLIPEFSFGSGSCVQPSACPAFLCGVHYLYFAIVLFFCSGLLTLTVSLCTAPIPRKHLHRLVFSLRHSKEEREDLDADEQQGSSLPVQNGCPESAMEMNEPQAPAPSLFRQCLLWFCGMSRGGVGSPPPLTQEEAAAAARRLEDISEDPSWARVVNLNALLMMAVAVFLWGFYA

Row | SMILES | IC50
1 | CCOc1ccc(Cc2cc([C@@H]3O[C@H](CO)[C@@H](O)[C@H](O)[C@H]3O)c3c(c2Cl)CC(C)(C)O3)cc1 [Example E220, (2S,3R,4R,5S,6R)-2-(4-Chloro-5-(4-ethoxybenzyl)-2,2-dimethyl-2,3-dihydrobenzofuran-7-yl)-6-(hydroxymethyl)tetrahydro-2H-pyran-3,4,5-triol] | 1.27 nM
2 | OC[C@H]1O[C@@H](c2ccc(Cl)c(Cc3ccc4c(c3)OCCO4)c2)[C@H](O)[C@@H](O)[C@@H]1O [Example E049, (2S,3R,4R,5S,6R)-2-(4-Chloro-3-((2,3-dihydrobenzo[b][1,4]dioxin-6-yl)methyl)phenyl)-6-(hydroxymethyl)-tetrahydro-2H-pyran-3,4,5-triol] | 1.23 nM
3 | CCOc1ccc(Cc2cc([C@@H]3O[C@H](CO)[C@@H](O)[C@H](O)[C@H]3O)c3c(c2Cl)CC(C)O3)cc1 (stereo partly drawn) [Example E011, (2S,3R,4R,5S,6R)-2-(4-Chloro-5-(4-ethoxybenzyl)-2-methyl-2,3-dihydrobenzofuran-7-yl)-6-(hydroxymethyl)tetrahydro-2H-pyran-3,4,5-triol] | 1.28 nM
4 | CCOc1ccc(Cc2cc3c(c([C@@H]4O[C@H](CO)[C@@H](O)[C@H](O)[C@H]4O)c2)CCC3)cc1 [Example E002, (2S,3R,4R,5S,6R)-2-(6-(4-Ethoxybenzyl)-2,3-dihydro-1H-inden-4-yl)-6-(hydroxymethyl)tetrahydro-2H-pyran-3,4,5-triol] | 9 nM
5 | OC[C@H]1O[C@@H](c2ccc(Cl)c(Cc3ccc4c(c3)SCCO4)c2)[C@H](O)[C@@H](O)[C@@H]1O [Example E072, (2S,3R,4R,5S,6R)-2-(4-Chloro-3-((2,3-dihydrobenzo[b][1,4]oxathiin-6-yl)methyl)phenyl)-6-(hydroxymethyl)-tetrahydro-2H-pyran-3,4,5-triol] | 1.75 nM
6 | CCOc1ccc(Cc2cc([C@@H]3O[C@H](CO)[C@@H](O)[C@H](O)[C@H]3O)cc(-c3ccc(F)cc3)c2C)cc1 [Example E078] | 93.3 nM
7 | CCOc1ccc(Cc2cc([C@@H]3O[C@H](OC)[C@@H](O)[C@H](O)[C@H]3O)c(OC)cc2Cl)cc1 [Example E109, (2S,3R,4R,5S,6S)-2-(4-Chloro-5-(4-ethoxybenzyl)-2-methoxyphenyl)-6-methoxytetrahydro-2H-pyran-3,4,5-triol] | 29.1 nM
8 | CCN(CC)c1ccc(Cc2cc([C@@H]3O[C@H](CO)[C@@H](O)[C@H](O)[C@H]3O)ccc2Cl)cc1 [Example E210, (2S,3R,4R,5S,6R)-2-(4-Chloro-3-(4-(diethylamino)benzyl)phenyl)-6-(hydroxymethyl)tetrahydro-2H-pyran-3,4,5-triol] | 89.3 nM
9 | OC[C@H]1O[C@@H](c2ccc(Cl)c(Cc3ccc4c(c3)OCO4)c2)[C@H](O)[C@@H](O)[C@@H]1O [Example E056, (2S,3R,4R,5S,6R)-2-(3-(Benzo[d][1,3]dioxol-5-ylmethyl)-4-chlorophenyl)-6-(hydroxymethyl)-tetrahydro-2H-pyran-3,4,5-triol] | 2.58 nM
10 | OC[C@H]1O[C@@H](c2cc(Cc3ccc(C(F)(F)F)cc3)c(Cl)c3c2OCC3)[C@H](O)[C@@H](O)[C@@H]1O [Example E122, (2S,3R,4R,5S,6R)-2-(4-Chloro-5-(4-(trifluoromethyl)benzyl)-2,3-dihydrobenzofuran-7-yl)-6-(hydroxymethyl)tetrahydro-2H-pyran-3,4,5-triol] | 1.97 nM
11 | OC[C@H]1O[C@@H](c2cc(Cc3ccc(OC4COC4)cc3)c(Cl)c3c2CCO3)[C@H](O)[C@@H](O)[C@@H]1O [Example E204, (2S,3R,4R,5S,6R)-2-(7-Chloro-6-(4-(oxetan-3-yloxy)benzyl)-2,3-dihydrobenzofuran-4-yl)-6-(hydroxymethyl)tetrahydro-2H-pyran-3,4,5-triol] | 5.05 nM
12 | OC[C@H]1O[C@@H](c2ccc(Cl)c(Cc3ccc4c(c3)CCC4)c2)[C@H](O)[C@@H](O)[C@@H]1O [Example E057, (2S,3R,4R,5S,6R)-2-(4-Chloro-3-((2,3-dihydro-1H-inden-5-yl)methyl)phenyl)-6-(hydroxymethyl)-tetrahydro-2H-pyran-3,4,5-triol] | 2.15 nM
13 | COc1ccc(Cc2cc([C@@H]3O[C@H](CO)[C@@H](O)[C@H](O)[C@H]3O)c3c(c2Cl)CCO3)cc1 [Example E021, (2S,3R,4R,5S,6R)-2-(4-Chloro-5-(4-methoxybenzyl)-2,3-dihydrobenzofuran-7-yl)-6-(hydroxymethyl)tetrahydro-2H-pyran-3,4,5-triol] | 1.72 nM
14 | CCn1ncc2cc(Cc3cc([C@@H]4O[C@H](CO)[C@@H](O)[C@H](O)[C@H]4O)ccc3Cl)ccc21 [Example E037, (2S,3R,4R,5S,6R)-2-(4-Chloro-3-((1-ethyl-1H-indazol-5-yl)methyl)phenyl)-6-(hydroxymethyl)tetrahydro-2H-pyran-3,4,5-triol] | 1.58 nM
15 | C=Cc1ccc(Cc2cc([C@@H]3O[C@H](CO)[C@@H](O)[C@H](O)[C@H]3O)c3c(c2Cl)CCO3)cc1 [Example E119, (2S,3R,4R,5S,6R)-2-(4-Chloro-5-(4-vinylbenzyl)-2,3-dihydrobenzofuran-7-yl)-6-(hydroxymethyl)tetrahydro-2H-pyran-3,4,5-triol] | 1.38 nM
16 | CC(F)c1ccc(Cc2cc([C@@H]3O[C@H](CO)[C@@H](O)[C@H](O)[C@H]3O)c3c(c2Cl)OCC3)cc1 (stereo partly drawn) [Example E170, (2S,3R,4R,5S,6R)-2-(7-Chloro-6-(4-(1-fluoroethyl)benzyl)-2,3-dihydrobenzofuran-4-yl)-6-(hydroxymethyl)tetrahydro-2H-pyran-3,4,5-triol] | 1.46 nM
17 | OC[C@H]1O[C@@H](c2ccc(Cl)c(Cc3ccc4nccnc4c3)c2)[C@H](O)[C@@H](O)[C@@H]1O [Example E026, (2S,3R,4R,5S,6R)-2-(4-Chloro-3-(quinoxalin-6-ylmethyl)phenyl)-6-(hydroxymethyl)tetrahydro-2H-pyran-3,4,5-triol] | 8.63 nM
18 | OC[C@H]1O[C@@H](c2cc(Cc3ccc4c(c3)OCCO4)c(Cl)cc2O)[C@H](O)[C@@H](O)[C@@H]1O [Example E052, (2S,3R,4R,5S,6R)-2-(4-Chloro-5-((2,3-dihydrobenzo[b][1,4]dioxin-6-yl)methyl)-2-hydroxyphenyl)-6-(hydroxymethyl)-tetrahydro-2H-pyran-3,4,5-triol] | 1.64 nM
19 | OC[C@H]1O[C@@H](c2cc(Cc3ccc(Cl)cc3)c(Cl)c3c2OCC3)[C@H](O)[C@@H](O)[C@@H]1O [Example E123, (2S,3R,4R,5S,6R)-2-(4-Chloro-5-(4-chlorobenzyl)-2,3-dihydrobenzofuran-7-yl)-6-(hydroxymethyl)tetrahydro-2H-pyran-3,4,5-triol] | 1.82 nM

Further lines, results first:

Row | IC50 | SMILES
20 | 1.08 nM | OC[C@H]1O[C@@H](c2cc(Cc3ccc(OC(F)(F)F)cc3)c(Cl)c3c2CCO3)[C@H](O)[C@@H](O)[C@@H]1O [Example E200, (2S,3R,4R,5S,6R)-2-(7-Chloro-6-(4-(trifluoromethoxy)benzyl)-2,3-dihydrobenzofuran-4-yl)-6-(hydroxymethyl)tetrahydro-2H-pyran-3,4,5-triol]
21 | 1.22 nM | CCCOc1ccc(Cc2cc([C@@H]3O[C@H](CO)[C@@H](O)[C@H](O)[C@H]3O)c3c(c2Cl)OCC3)cc1 [Example E194, (2S,3R,4R,5S,6R)-2-(7-Chloro-6-(4-propoxybenzyl)-2,3-dihydrobenzofuran-4-yl)-6-(hydroxymethyl)tetrahydro-2H-pyran-3,4,5-triol]
22 | 0.808 nM | Cc1ccc(Cc2cc([C@@H]3O[C@H](CO)[C@@H](O)[C@H](O)[C@H]3O)c3c(c2Cl)CCC3)cc1 [Example E139, (2S,3R,4R,5S,6R)-2-(7-Chloro-6-(4-methylbenzyl)-2,3-dihydro-1H-inden-4-yl)-6-(hydroxymethyl)tetrahydro-2H-pyran-3,4,5-triol]
23 | 0.551 nM | COc1cc([C@@H]2O[C@H](SC)[C@@H](O)[C@H](O)[C@H]2O)cc(Cc2ccc3c(c2)OCCO3)c1Cl [Example E113, (2S,3R,4R,5S,6R)-2-(4-Chloro-3-((2,3-dihydrobenzo[b][1,4]dioxin-6-yl)methyl)-5-methoxyphenyl)-6-(methylthio)tetrahydro-2H-pyran-3,4,5-triol]
24 | 0.628 nM | COc1cc(Cl)c(Cc2ccc3c(c2)OCCO3)cc1[C@@H]1O[C@H](SC)[C@@H](O)[C@H](O)[C@H]1O [Example E095, (2S,3R,4R,5S,6R)-2-(4-Chloro-5-((2,3-dihydrobenzo[b][1,4]dioxin-6-yl)methyl)-2-methoxyphenyl)-6-(methylthio)-tetrahydro-2H-pyran-3,4,5-triol]
25 | 1.01 nM | CSc1ccc(Cc2cc([C@@H]3O[C@H](CO)[C@@H](O)[C@H](O)[C@H]3O)c3c(c2Cl)CCCO3)cc1 [Example E154, (2S,3R,4R,5S,6R)-2-(5-Chloro-6-(4-(methylthio)benzyl)chroman-8-yl)-6-(hydroxymethyl)tetrahydro-2H-pyran-3,4,5-triol]
26 | 0.788 nM | OC[C@H]1O[C@@H](c2ccc(Cl)c(Cc3ccc4c(c3)OC=CO4)c2)[C@H](O)[C@@H](O)[C@@H]1O [Example E069]
27 | 0.715 nM | CCc1ccc(Cc2cc([C@@H]3O[C@H](CO)[C@@H](O)[C@H](O)[C@H]3O)c3c(c2Cl)OCC3)cc1 [Example E020, (2S,3R,4R,5S,6R)-2-(6-(4-Ethylbenzyl)-7-chloro-2,3-dihydrobenzofuran-4-yl)-6-(hydroxymethyl)-tetrahydro-2H-pyran-3,4,5-triol]
28 | 0.884 nM | CCc1ccc(Cc2cc([C@@H]3O[C@H](CO)[C@@H](O)[C@H](O)[C@H]3O)c3c(c2Cl)CCO3)cc1 [Example E010, (2S,3R,4R,5S,6R)-2-(4-Chloro-5-(4-ethylbenzyl)-2,3-dihydrobenzofuran-7-yl)-6-(hydroxymethyl)tetrahydro-2H-pyran-3,4,5-triol]
29 | 0.891 nM | CCc1ccc(Cc2cc([C@@H]3O[C@H](CO)[C@@H](O)[C@H](O)[C@H]3O)c3c(c2Cl)C(C)CO3)cc1 (stereo partly drawn) [Example E215, (2S,3R,4R,5S,6R)-2-(4-Chloro-5-(4-ethylbenzyl)-3-methyl-2,3-dihydrobenzofuran-7-yl)-6-(hydroxymethyl)tetrahydro-2H-pyran-3,4,5-triol]
